Here are results for nine compounds from patent US11318137B2, “Quinazoline compounds as modulators of Ras signaling” (VANDERBILT UNIVERSITY, priority 2017, dated 2022).

For one assay, the target named is T1, Son of Sevenless (SOS) (Homo sapiens, UniProt Q07889).
T1 sequence (Q07889 564-1049 limits assumed): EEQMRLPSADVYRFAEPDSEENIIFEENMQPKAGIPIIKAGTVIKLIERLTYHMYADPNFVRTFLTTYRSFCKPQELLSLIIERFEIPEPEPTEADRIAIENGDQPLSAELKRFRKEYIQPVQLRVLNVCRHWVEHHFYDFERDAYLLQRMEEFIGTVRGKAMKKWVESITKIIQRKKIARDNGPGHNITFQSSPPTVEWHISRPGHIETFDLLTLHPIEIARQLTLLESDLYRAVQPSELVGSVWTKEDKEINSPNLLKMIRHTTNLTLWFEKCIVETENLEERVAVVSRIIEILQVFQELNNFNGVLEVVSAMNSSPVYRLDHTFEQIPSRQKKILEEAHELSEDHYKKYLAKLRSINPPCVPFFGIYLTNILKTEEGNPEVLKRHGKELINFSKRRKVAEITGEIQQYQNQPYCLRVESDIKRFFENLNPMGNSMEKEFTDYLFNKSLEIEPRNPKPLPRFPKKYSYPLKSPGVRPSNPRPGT
The assay is described as follows: Binding to SOS, fluorescence polarization anisotropy (FPA) displacement of FITC-conjugated probe. The note with it: binding affinity calculated from IC50 of FITC-probe displacement, read-out: Binding affinities (binding affinity to SOS). An outline of the steps: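 FITC-labelled probe incubated with SOS in buffer; displacement by test compound across a dose range read as fluorescence anisotropy change. IC50 from four-parameter variable-slope fit, binding affinity calculated from IC50.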

Assay [1] deals with T2, SOS-mediated nucleotide exchange on Ras (Homo sapiens, UniProt Q07889).
T2 sequence (Q07889 1-1333): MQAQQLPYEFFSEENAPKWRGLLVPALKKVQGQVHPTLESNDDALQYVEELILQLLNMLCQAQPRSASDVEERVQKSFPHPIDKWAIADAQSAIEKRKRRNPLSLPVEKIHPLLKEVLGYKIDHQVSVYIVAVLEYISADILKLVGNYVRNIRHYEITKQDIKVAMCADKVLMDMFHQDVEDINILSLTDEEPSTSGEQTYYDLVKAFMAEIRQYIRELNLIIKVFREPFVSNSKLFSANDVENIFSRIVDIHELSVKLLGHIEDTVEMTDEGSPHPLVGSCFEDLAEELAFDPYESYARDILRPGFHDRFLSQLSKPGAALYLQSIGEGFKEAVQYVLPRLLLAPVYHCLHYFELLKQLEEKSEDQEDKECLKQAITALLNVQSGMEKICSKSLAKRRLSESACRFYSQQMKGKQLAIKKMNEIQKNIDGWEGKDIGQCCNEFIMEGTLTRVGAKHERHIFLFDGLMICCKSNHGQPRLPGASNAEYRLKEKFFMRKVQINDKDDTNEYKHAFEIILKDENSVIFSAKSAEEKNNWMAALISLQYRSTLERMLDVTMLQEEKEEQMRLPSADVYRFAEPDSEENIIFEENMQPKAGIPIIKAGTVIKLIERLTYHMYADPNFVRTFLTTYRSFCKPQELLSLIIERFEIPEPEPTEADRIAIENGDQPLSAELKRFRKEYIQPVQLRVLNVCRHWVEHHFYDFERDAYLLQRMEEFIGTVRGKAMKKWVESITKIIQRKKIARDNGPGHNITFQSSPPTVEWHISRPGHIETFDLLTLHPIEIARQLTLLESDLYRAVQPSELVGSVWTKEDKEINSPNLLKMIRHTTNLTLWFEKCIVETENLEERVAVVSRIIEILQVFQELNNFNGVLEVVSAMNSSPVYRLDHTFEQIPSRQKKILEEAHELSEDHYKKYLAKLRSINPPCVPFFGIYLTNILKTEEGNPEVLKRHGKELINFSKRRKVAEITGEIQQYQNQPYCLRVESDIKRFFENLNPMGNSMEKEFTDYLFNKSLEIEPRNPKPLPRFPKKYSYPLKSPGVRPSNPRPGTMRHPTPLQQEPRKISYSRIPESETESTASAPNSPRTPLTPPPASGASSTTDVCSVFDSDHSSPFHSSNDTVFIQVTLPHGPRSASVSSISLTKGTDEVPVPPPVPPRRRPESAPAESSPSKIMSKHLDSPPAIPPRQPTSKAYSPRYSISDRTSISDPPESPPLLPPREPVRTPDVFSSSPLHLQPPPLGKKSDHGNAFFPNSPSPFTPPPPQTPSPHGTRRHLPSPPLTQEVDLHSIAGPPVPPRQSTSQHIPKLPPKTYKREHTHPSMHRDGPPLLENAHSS
The assay is described as follows: SOS-mediated nucleotide exchange on Ras (BODIPY-GDP fluorescence). In kind it is biochemical. The conditions noted are these: Ras loaded with BODIPY-GDP, GTP and SOS added; EC50 from derived exchange rates. In outline: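 Compound, then GTP and SOS, were added to buffered Ras preloaded with BODIPY-GDP, and the fluorescence change from labeled GDP being exchanged for GTP was followed over time. Rates came from single-exponential fits, and EC50 from a four-parameter fit of mean rate against compound concentration.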

The test system of assay [2] is H727 lung cancer cell lines, which contain a G12V K-Ras mutation. In words: Inhibition of cancer cell proliferation (CellTiter-Glo, 3 days). In kind it is cell-based. The conditions noted are these: Homo sapiens, NCI-H727, 72 h, H727 cells, 3 days at 37° C., normalized to DMSO control, read-out: Cell proliferation activity (H727 cancer cell line proliferation IC50). As to the method: C. Inhibition of Cancer Cell Proliferation
Compounds of the present invention were measured for their ability to kill H727 lung cancer cell lines, which contain a G12V K-Ras mutation. Cell proliferation experiments were conducted in 96-well plates. Cells were plated at 1000 cells/well, incubated overnight, followed by treatment with a dose range of compound for 3 days at 37° C. Cell proliferation was assessed using a CellTiter-Glo assay (Promega) according to the manufacturer's protocol. Data were normalized to DMSO control. IC50 values were determined using a four-parameter dose-response (variable slope) equation. These assays are performed in a manner analogous to the assay disclosed in: Burns, M. C.; Sun, Q.; Daniels, R. N.; Camper, D. V.; Kennedy, J. P.; Phan, J.; Olejniczak, E. O.; Lee, T.; Waterson, A. G.; Rossanese, O. W.; Fesik, S. W. “Approach for targeting Ras with small molecules that activate SOS-mediated nucleotide exchange” Proc. Natl. Acad. Sci. 2014; 11(9): 3401-3406. PMCID: PMC3948241.
On the technique in general: In ATP-based viability assays light output follows the ATP content of the culture.

A value given as a limit tells only on which side of the number the result lay.

With `CC[C@@H](Nc1nc(Nc2ccc(F)c(Cl)c2)nc2c(N3CCNCC3)cccc12)C1CC1` [Example 64, (R)—N^2-(3-chloro-4-fluorophenyl)-N^4-(1-cyclopropylpropyl)-8-(piperazin-1-yl)quinazoline-2,4-diamine], the Ki on Son of Sevenless (SOS) is 1 to 5 µM. The EC50 in assay [1] lay in the range of 1 to 5 µM. Moreover, in assay [2], the IC50 was < 1 µM.

In the case of `C[C@@H](Nc1nc(NCC2CCCCCC2)nc2ccccc12)C1CC1` [Example 5, (R)—N^2-(cycloheptylmethyl)-N^4-(1-cyclopropylethyl)quinazoline-2,4-diamine], the Ki on Son of Sevenless (SOS) is > 5 µM. Besides, in assay [1], the concentration for a half-maximal effect (EC50) was in the range of 5 to 30 µM. In addition, the IC50 in assay [2] is 1 to 5 µM.

For `NCc1cccc2c(NC(C3CC3)C3CC3)nc(NCC3CCCCC3)nc12` [Example 75, 8-(aminomethyl)-N^2-(cyclohexylmethyl)-N^4-(dicyclopropylmethyl)quinazoline-2,4-diamine], the Ki on Son of Sevenless (SOS) was > 5 µM. For the same compound, in assay [1], the EC50 is 5 to 30 µM. Besides, the IC50 in assay [2] is < 1 µM.

Take `C[C@@H](Nc1nc(NCC2CCCCC2)nc2c(CN)cccc12)C1CC1` [Example 78, (R)-8-(aminomethyl)-N^2-(cyclohexylmethyl)-N^4-(1-cyclopropylethyl)quinazoline-2,4-diamine]: on Son of Sevenless (SOS), the Ki was > 5 µM. The EC50 in assay [1] was 1 to 5 µM. For the same compound, in assay [2], the IC50 is 5 to 20 µM.

With `C[C@@H](Nc1nc(Nc2ccc(F)c(Cl)c2)nc2c(CNC(=N)N)cccc12)C1CC1` [Example 59, (R)-1-((2-((3-chloro-4-fluorophenyl)amino)-4-((1-cyclopropylethyl)amino)quinazolin-8-yl)methyl)guanidine], the Ki on Son of Sevenless (SOS) was > 5 µM. Further, in assay [1], the EC50 is 5 to 30 µM. In assay [2], the IC50 is 5 to 20 µM.

Consider `CNCc1cccc2c(N[C@H](C)C3CC3)nc(Nc3ccc(F)c(Cl)c3)nc12` [Example 58, (R)—N^2-(3-chloro-4-fluorophenyl)-N^4-(1-cyclopropylethyl)-8-((methylamino)methyl)quinazoline-2,4-diamine], for which the Ki at Son of Sevenless (SOS) is > 5 µM. The compound further came in with an EC50 in assay [1] of 5 to 30 µM. Further, the IC50 in assay [2] lay within 1 to 5 µM.

Consider `C[C@@H](Nc1nc(Nc2ccc(F)c(Cl)c2)nc2c(C(=N)N)cccc12)C1CC1` [Example 57, (R)-2-((3-chloro-4-fluorophenyl)amino)-4-((1-cyclopropylethyl)amino)quinazoline-8-carboximidamide], for which the Ki at Son of Sevenless (SOS) is > 5 µM. For the same compound, the EC50 in assay [1] was 1 to 5 µM. Besides, in assay [2], the IC50 lay in the range of 1 to 5 µM.

For `C[C@@H](Nc1nc(Nc2cc[nH]n2)nc2c(C3=CCNCC3)cccc12)C1CC1` [Example 70, (R)—N^4-(1-cyclopropylethyl)-N^2-(1H-pyrazol-3-yl)-8-(1,2,3,6-tetrahydropyridin-4-yl)quinazoline-2,4-diamine], the Ki at Son of Sevenless (SOS) was > 5 µM. Moreover, in assay [1], the EC50 was > 30 µM. Besides, in assay [2], the IC50 was 5 to 20 µM.

Regarding `C[C@@H](Nc1nc(Oc2ccc(F)c(Cl)c2)nc2c(C3=CCNCC3)cccc12)C1CC1` [Example 69, (R)-2-(3-chloro-4-fluorophenoxy)-N-(1-cyclopropylethyl)-8-(1,2,3,6-tetrahydropyridin-4-yl)quinazolin-4-amine], the Ki at Son of Sevenless (SOS) is > 5 µM. Also, the EC50 in assay [1] is > 30 µM. Moreover, in assay [2], the IC50 lay in the range of 1 to 5 µM.

The term EC50 denotes the midpoint of the concentration-response curve. High values mean a less potent agent, low ones a more potent agent.
